# Laboratory results reported in patent US20120225093A1, “Abrogating HIV-1 Infection via Drug-Induced Reactivation of Apoptosis” (UNIVERSITY OF MEDICINE AND DENTISTRY OF NEW JERSEY, priority 2010, published 2012).
# Columns and labels:
# uninfected H9 cells = assay: 89-kDa PARP fragment by flow cytometry in uninfected H9 cells; format: cell-based; details: 30 μM CPX, 24 hr
# Method: Intracellular antigens were determined, as geometric means of fluorescence, by flow cytometric analysis using a BD FACSCalibur™ and its BD FACStation System™ (Becton Dickinson; San Jose, Calif.). Intracellular antigens were stained according to the instrument producer's instructions. Anti-HIV-1 Tat antibody was from Abcam Inc. (Cambridge, Mass.); anti-HIV-1 Vpr from Santa Cruz Biotechnology (Santa Cruz, Calif.); anti-HIV-1 Rev from Advanced Biotechnologies Inc. (Columbia, Md.); anti-HIV-1 p24 (KC57) from Beckman Coulter, Miami, Fla.; monoclonal C92-605 anti-human caspase-3 (active form) from Pharmingen (BD Biosciences, San Diego, Calif.); monoclonal F21-852 anti-human poly (ADP-ribose) polymerase (caspase-cleaved 89-kDa fragment); and monoclonal 6C8 anti-human Bcl-2 from Becton Dickinson (BD Biosciences; San Diego, Calif.).
# To determine whether the differential effects of the drugs extend into late apoptosis, PARP fragmentation in H9 and H9-HIV cells was measured. CPX caused an ˜8-fold increase in H9-HIV cells positive for 89-kDa PARP, compared to a ˜2 fold increase in H9 cells (FIG. 9A). By 24 hr, twice as many cells stained positive for 89-kDa PARP in the infected cultures as in uninfected cultures (27% compared to 14%; FIG. 9B). […]
# H9-HIV cells = assay: TUNEL DNA fragmentation in H9-HIV cells; format: cell-based; details: 24 hr; between 10 and 20 μM CPX, leveled off at 40 μM
# Method: (§1) The potential across the mitochondrial membrane of live cells was determined flow-cytometrically with the lipophilic cationic fluorochrome JC-1 (5,5′,6,6′-tetrachloro-1,1′,3,3′-tetraethylbenzimidazolcarbocyanine iodide) immediately after sample harvest (BD™ Mitoscreen Kit, BD Biosciences; San Diego, Calif.). DNA fragmentation was quantified flow-cytometrically, using a TUNEL (terminal deoxynucleotide transferase dUTP nick end-labeling) assay (APO-BRDU™; Phoenix Flow Systems; San Diego, Calif.) and a dual-color assay for annexin V binding and 7-AAD exclusion (Annexin V-PE 7-AAD Apoptosis Detection Kit I™; BD Biosciences Pharmingen, San Jose, Calif.). The apoptotic volume decrease of cells was assessed by the reduction of their diameter (VI-CELL™; Beckman Coulter; Fullerton, Calif.).
# The relationship between iron chelation and apoptosis was assessed using the TUNEL assay to measure DNA fragmentation. DEF induces this late apoptotic event in HIV-expressing ACH-2 cells. Similarly, CPX triggered DNA fragmentation in H9-HIV cells in a dose-dependent manner with a steep, almost 10-fold increase in TUNEL-positive cells between 10 and 20 μM CPX that leveled off at 40 μM (FIG. 11C). […]
# uninfected PBMCs = assay: TUNEL apoptosis in uninfected PBMC cultures; format: cell-based, human; details: CPX 30 μM
# Method: Uninfected PBMCs were co-incubated with infected PBMC stock in 24-well microplates at 2 ml/well Medium B, at a 10:1 ratio of uninfected-to-infected cells, and a total cell number of 1×10^6. Cultures were maintained and assayed for 6 consecutive days. CPX or Agent P2 was added at the time of inoculation or 12 hr later. Leaving the cell layer undisturbed, half the medium in each well was replenished every day, with concurrent adjustment of compound concentration. On each day during the 6-day experiments, a set of wells was harvested: the cells were processed for determination of viability and apoptosis, and the cell-free supernatants were stored at −80° C. for p24 and viral RNA measurements. […]
# as §1, with “The apoptotic volume decrease of cells was assessed by the reduction of their diameter (VI-CELL™; Beckman Coulter; Fullerton, Calif.).” left out
# IFN-γ = IFN-γ secretion by PBMC cultures (cytometric bead array); format: cell-based, human; details: CPX added at inoculation or 12 hr later; Phase I
# Method: Uninfected PBMCs were co-incubated with infected PBMC stock in 24-well microplates at 2 ml/well Medium B, at a 10:1 ratio of uninfected-to-infected cells, and a total cell number of 1×10^6. Cultures were maintained and assayed for 6 consecutive days. CPX or Agent P2 was added at the time of inoculation or 12 hr later. Leaving the cell layer undisturbed, half the medium in each well was replenished every day, with concurrent adjustment of compound concentration. On each day during the 6-day experiments, a set of wells was harvested: the cells were processed for determination of viability and apoptosis, and the cell-free supernatants were stored at −80° C. for p24 and viral RNA measurements. Experiments were performed at least in duplicate and repeated at least twice.
# p24 core antigen in the supernatant was quantified by ELISA (Retrotek HIV-1 p24™; ZeptoMetrix Corp.; Buffalo, N.Y.). HIV-1 RNA copy number in the supernatant was determined with a PCR-based and FDA-approved assay (Amplicor HIV-1 Monitor™; Roche Diagnostics Corp.; Indianapolis, Ind.). IFN-γ and IL-10 in the supernatant were determined by cytometric bead array (Human Th1/Th2 Cytokine Kit II™; BD Biosciences Pharmingen, San Jose, Calif.).
# To further assess the cellular effects of CPX, the secretion of interferon (IFN)-γ and interleukin (IL)-10 was measured. […]
# [1] = in vivo; cited from earlier work
smiles,measurement,setting,value
"Cc1cc(C2CCCCC2)n(O)c(=O)c1 [CPX, 6-cyclohexyl-1-hydroxy-4-methylpyridin-2[1H]-one]",cells positive for 89-kDa PARP,uninfected H9 cells,14%
same,increase in cells positive for 89-kDa PARP,uninfected H9 cells; relative to untreated,~2 fold
same,increase in TUNEL-positive cells,H9-HIV cells,~10 fold
same,apoptotic (TUNEL-positive) cells,uninfected PBMCs; 144 hr,24.1% (±3.2%)
same,change in proportion of TUNEL-positive PBMCs,uninfected PBMCs; uninfected cultures,roughly doubled
same,HIV-induced rise of IFN-γ,IFN-γ,abolished the HIV-induced cytokine boost
same,tolerability,[1],well tolerated
